Results reported in patent US10736934B2, “Proteasome modulation for treatment of corneal disorders” (The Lundquist Institute, priority 2015, dated 2020).

What was measured:
[1] = system: IκB / NFκB; assay: IκB / NFκB activation in PS-341-treated oral mucosa epithelial cells
[2] = system: Keratin 4 (K4); assay: Western blot of K4 in PS-341-treated oral mucosa epithelial cells; type: cell-based, rabbit; conditions: OMECS
Procedure: (§1) After two weeks of cell culture and when the cells grew to form a multilayered tissue like, proteasome inhibitor (PS-341, (Bortezomib/Velcade®, Millennium Pharmaceutical, a highly specific proteasome inhibitor) was added in cell culture media for 24 h and for 72 h at 2.5, 5, 10, 20, and 50 nM, to, respectively achieve proteasome inhibition or proteasome activation.

[3] = system: oral mucosa epithelial cells (OMECS); assay: Toxicity of low-dose PS-341 in oral mucosa epithelial cells; type: cell-based, rabbit; conditions: 2.5 nM PS-341 (very low dose), 72 h
Procedure: as §1

[4] = system: poly-ubiquitinated proteins; assay: Western blot of poly-ubiquitinated proteins in PS-341-treated oral mucosa epithelial cells; type: cell-based, rabbit; conditions: 2.5 nM PS-341, 72 h
Procedure: as §1

[5] = system: Keratin 13 (K13); assay: Western blot of K13 in PS-341-treated oral mucosa epithelial cells; type: cell-based, rabbit; conditions: OMECS
Procedure: as §1

[6] = system: 26S constitutive proteasome (CPR); assay: Proteasome chymotrypsin-like activity in cultured oral mucosa epithelial cells treated with PS-341; type: cell-based, rabbit
Procedure: as §1
One μg of total protein from sample homogenates was used. The reaction mixture contained 50 mM Tris-HCl pH=8, 1 mM DTT, and 40 μM Suc-Leu-Leu-Val-Tyr-AMC (Sigma Aldrich) substrate for chymotrypsin-like activity or 40 μM of Boc-Leu-Ser-Thr-Arg-AMC for trypsin-like activity or 100 uM of Ac-Gly-Pro-Leu-Asp-AMC (Sigma Aldrich) for Caspase-like activity. 5 mM ATP was added to the reaction mixture to distinguish 26S proteasome activity from 20S proteasome activity. The mixture was then incubated for 30 min at 37° C., and then stopped by adding […] monochloroacetate and 30 mM sodium acetate pH=4.3. Fluorescence was determined by measuring the release of AMC (λ, excitation: 370 nm, λ, emission: 410 nm), using a Perkin Elmer LS 30 spectrofluorometer.

[7] = high doses 10 and 50 nM, 24 hours

## CC(C)C[C@H](NC(=O)[C@H](Cc1ccccc1)NC(=O)c1cnccn1)B(O)O [PS-341, Bortezomib]
[1]; 2.5 nM PS-341, 72 hours after treatment, OMECS
  levels of expression of Inhibitor Kappa B: decreased
[1]; 2.5 nM PS-341, OMECS
  NFκB activation: blocked NFκB activation
[1]; 2.5 nM PS-341, first 24 hours, OMECS
  IκB: stabilizing IκB
[2]; 2.5 nM PS-341, 72 hours
  K4 levels: decreased
[2]; [7]
  K4 level: modified and significantly accumulated
[3]
  toxic effects: does not produce toxic effects
[4]
  poly-ubiquitinated protein accumulation: no significant poly-ubiquitinated protein accumulation
[5]; 2.5 nM PS-341, 72 hours
  K13 levels: decreased
[5]; [7]
  K13 level: modified and significantly accumulated
[6]; 2.5 nM PS-341, 24 h, oral mucosa epithelial cells
  CPR chymotrypsin-like activity decrease: 9%
[6]; 2.5 nM PS-341, 72 hours, oral mucosa epithelial cells
  increase in proteasome chymotrypsin-like activity versus untreated cells: 61%
[6]; 5 nM PS-341, 24 h, oral mucosa epithelial cells
  CPR chymotrypsin-like activity decrease: −41%
[6]; 5 nM PS-341, 72 hours, oral mucosa epithelial cells
  proteasome activities at 72 hours: increased proteasome activities
[6]; 10 nM PS-341, 24 h, oral mucosa epithelial cells
  CPR chymotrypsin-like activity decrease: −59%
[6]; 10 nM PS-341, 72 hours, oral mucosa epithelial cells
  proteasome activities at 72 hours: increased proteasome activities
[6]; 20 nM PS-341, 24 h, oral mucosa epithelial cells
  CPR chymotrypsin-like activity decrease: −84%
[6]; 50 nM PS-341, 24 h, oral mucosa epithelial cells
  CPR chymotrypsin-like activity decrease: −86%
[6]; high doses 10 and 50 nM, 24 hours, OMECS
  Chymotrypsine-like proteasome activity: decreased
